Experimental data published in ChEMBL document CHEMBL5528087, “RNA-Small-Molecule Interaction: Challenging the "Undruggable" Tag” (J Med Chem, 2024).

Experiments:
Quadruplex DNA [1] = experiment: Binding affinity to TERRA G-Quadruplex (unknown origin) assessed as melting temperature; type: nucleic-acid assay
Quadruplex DNA [2] = experiment: Binding affinity to TERRA G-Quadruplex (unknown origin) assessed as dissociation constant; type: nucleic-acid assay
[3] = Binding affinity to SARS-Cov-2 RNA pseudoknot assessed as dissociation constant; design: species or system Severe acute respiratory syndrome coronavirus 2
[4] = biological target: T1, Survival of motor neuron-related-splicing factor 30 (Homo sapiens) (UniProt O75940); experiment: Inhibition of SMNDC1 (unknown origin) assessed as fold increase at 40 uM
T1 sequence (whole entry): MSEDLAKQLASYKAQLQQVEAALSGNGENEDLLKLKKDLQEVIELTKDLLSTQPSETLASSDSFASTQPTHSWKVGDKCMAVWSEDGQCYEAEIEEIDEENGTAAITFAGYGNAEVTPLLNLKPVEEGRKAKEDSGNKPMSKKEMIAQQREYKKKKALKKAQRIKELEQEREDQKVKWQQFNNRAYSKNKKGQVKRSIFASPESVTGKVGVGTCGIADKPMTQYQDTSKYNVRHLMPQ

[5] = biological target: T2, Non-structural protein 4b (Hepacivirus hominis, UniProt F5B4I0); experiment: Binding affinity to Hepatitis C virus genotype 1 NS4B assessed as inhibition constant
T2 sequence (F5B4I0 whole entry): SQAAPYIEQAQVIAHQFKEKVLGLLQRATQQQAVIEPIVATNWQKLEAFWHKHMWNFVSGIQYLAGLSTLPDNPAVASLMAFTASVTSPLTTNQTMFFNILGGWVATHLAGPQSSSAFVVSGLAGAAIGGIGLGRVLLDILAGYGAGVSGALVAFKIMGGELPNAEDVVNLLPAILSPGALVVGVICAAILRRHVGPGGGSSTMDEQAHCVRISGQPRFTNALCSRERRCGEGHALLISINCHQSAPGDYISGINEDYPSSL

preQ1 riboswitch [6] = experiment: Binding affinity to Thermoanaerobacter tengcongensis 5-Cy5-PreQ1-RS RNA assessed as dissociation constant; type: nucleic-acid assay, Caldanaerobacter subterraneus subsp. tengcongensis
preQ1 riboswitch [7] = experiment: Binding affinity to Bacillus subtilis 5-Cy5-PreQ1-RS RNA assessed as dissociation constant; type: nucleic-acid assay

With `O=c1c2c(-c3ccco3)csc2nc2n1Cc1nc3scc(-c4ccco4)c3c(=O)n1C2` the ΔTm (Quadruplex DNA [1]) was > 5 °C and the Kd (Quadruplex DNA [2]) was 8.8 µM.
With `CCOC(=O)c1ccccc1NC(=O)N1CCCN(Cc2csc(C)n2)CC1` the Kd [3] was 210 µM.
With `O=C(c1cnc(C(=O)c2c[nH]c3cc(O)ccc23)[nH]1)c1c[nH]c2ccccc12` the fold change (FC) [4] was 1.5.
With `CN(C)CCCNc1nc2ccc(N)cc2o1` the Ki [5] was 6 µM.
`NCCOc1ccc2oc3ccccc3c2c1` gave a Kd (preQ1 riboswitch [6]) of 0.457 µM and a Kd (preQ1 riboswitch [7]) of 0.534 µM.
